The values that follow come from ChEMBL document CHEMBL4043155, “Development of helix-stabilized antimicrobial peptides composed of lysine and hydrophobic α,α-disubstituted α-amino acid residues” (2017).

In brackets after ≈: the same amount, converted by molar mass. Where a SMILES comes first, the peptide text is derived from it. [ ]: non-standard residue; d: D form. Ac6c = NC1(C(=O)O)CCCCC1; Ac5c = NC1(C(=O)O)CCCC1 Where only a bound is given, the exact number is not on record here.

Common to all, as to format: functional
One assay has as its system Pseudomonas aeruginosa. The experiment in a line: Antimicrobial activity against Pseudomonas aeruginosa NBRC 13275 after 16 hrs by microbroth dilution method. The conditions noted are these: NBRC 13275, 16 h.
The subject of the next assay is Staphylococcus aureus. The assay is described as follows: Antimicrobial activity against Staphylococcus aureus NBRC 13276 after 16 hrs by microbroth dilution method. The conditions noted are these: NBRC 13276, 16 h.
A further assay concerns Escherichia coli. The assay is described as follows: Antimicrobial activity against Escherichia coli NBRC 3972 after 16 hrs by microbroth dilution method. The conditions noted are these: NBRC 3972, 16 h.

`CC(=O)N[C@H](CCCCN)C(=O)N[C@H](CCCCN)C(=O)NC(C)(C)C(=O)N[C@H](CCCCN)C(=O)N[C@H](CCCCN)C(=O)NC(C)(C)C(=O)N[C@H](CCCCN)C(=O)N[C@H](CCCCN)C(=O)NC(C)(C)C(N)=O`: the minimum inhibitory concentration (MIC) against Pseudomonas aeruginosa, with Staphylococcus aureus and with Escherichia coli was greater than 800 µM each time.

Consider `CC(=O)N[C@@H](CCCCN)C(=O)N[C@H](CCCCN)C(=O)NC(C)(C)C(=O)N[C@@H](CCCCN)C(=O)N[C@H](CCCCN)C(=O)NC(C)(C)C(=O)N[C@@H](CCCCN)C(=O)N[C@H](CCCCN)C(=O)NC(C)(C)C(N)=O`, for which the MIC with Pseudomonas aeruginosa, in the assay on Staphylococcus aureus and with Escherichia coli was greater than 800 µM throughout.

Take `CC(=O)N[C@@H](CCCCN)C(=O)N[C@@H](CCCCN)C(=O)NC(C)(C)C(=O)N[C@@H](CCCCN)C(=O)N[C@@H](CCCCN)C(=O)NC(C)(C)C(=O)N[C@@H](CCCCN)C(=O)N[C@@H](CCCCN)C(=O)NC(C)(C)C(N)=O`: the MIC was greater than 800 µM against Pseudomonas aeruginosa, greater than 800 µM against Staphylococcus aureus and 400 µM (≈ 433 µg/mL) against Escherichia coli.

For the molecule `CC(=O)N[C@@H](CCCCN)C(=O)N[C@@H](CCCCN)C(=O)NC1(C(=O)N[C@@H](CCCCN)C(=O)N[C@@H](CCCCN)C(=O)NC2(C(=O)N[C@@H](CCCCN)C(=O)N[C@@H](CCCCN)C(=O)NC3(C(N)=O)CCCC3)CCCC2)CCCC1` (Ac-KK[Ac5c]KK[Ac5c]KK[Ac5c]-NH2), the MIC was 400 µM (≈ 465 µg/mL) in the assay with Pseudomonas aeruginosa, greater than 800 µM against Staphylococcus aureus and 50 µM (≈ 58.1 µg/mL) in the assay on Escherichia coli.

For `CC(=O)N[C@@H](CCCCN)C(=O)N[C@@H](CCCCN)C(=O)NC1(C(=O)N[C@@H](CCCCN)C(=O)N[C@@H](CCCCN)C(=O)NC2(C(=O)N[C@@H](CCCCN)C(=O)N[C@@H](CCCCN)C(=O)NC3(C(N)=O)CCCCC3)CCCCC2)CCCCC1` (Ac-KK[Ac6c]KK[Ac6c]KK[Ac6c]-NH2), the values for the minimal inhibitory concentration (MIC) against Pseudomonas aeruginosa, in the assay with Staphylococcus aureus and against Escherichia coli were 50 µM (≈ 60.2 µg/mL), greater than 800 µM and 25 µM (≈ 30.1 µg/mL), respectively.

As for `CC(=O)NC(CCCCN)C(=O)NC(CCCCN)C(=O)NC(C)(C)C(=O)NC(CCCCN)C(=O)NC(CCCCN)C(=O)NC(C)(C)C(=O)NC(CCCCN)C(=O)NC(CCCCN)C(=O)NC(C)(C)C(N)=O` (racemic), the MIC in the assay on Pseudomonas aeruginosa, in the assay on Staphylococcus aureus and in the assay with Escherichia coli was greater than 800 µM throughout.

On to Ac-GIGKFLHSAKKFGKAFVGEIMNS-NH2, for which the values for the MIC against Pseudomonas aeruginosa, in the assay on Staphylococcus aureus and in the assay on Escherichia coli were 12.5 µM, 200 µM and 50 µM, respectively.

With Ac-KKAKKAKKA-NH2, the minimal inhibitory concentration (MIC) in the assay on Pseudomonas aeruginosa, against Staphylococcus aureus and in the assay on Escherichia coli was greater than 800 µM each time.

Consider Ac-KKGKKGKKG-NH2, for which the MIC against Pseudomonas aeruginosa, in the assay on Staphylococcus aureus and against Escherichia coli was greater than 800 µM throughout.
